Measured values reported in patent publication US20250188079A1, “INHIBITING CYCLIC AMP-RESPONSIVE ELEMENT-BINDING PROTEIN (CREB)” (Forma Therapeutics, Inc., priority 2019, published 2025).

Molecular target: CBP (Homo sapiens (Human), UniProt Q92793)
Test: HTRF biochemical assay for CBP activity (TR-FRET, bromodomain)
Format: binding
Conditions: geometric mean, 10-point 3-fold dilution 33 μM to 1.7 nM, read-out: BROMO IC50 TRF TB CBP (μM gmean)
In short: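 IC50 derives from a 4-parameter logistic fit of % inhibition, calculated from the 520/490 nm TR-FRET ratio against DMSO and no-enzyme controls. Final compound levels spanned 33 μM to 1.7 nM (10 points, 3-fold), with CBP and peptide ligand in Hepes pH 7.5/GSH/BGG/BSA/Triton buffer, incubated at room temperature for varying times.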

CBP, sequence (Q92793 1085-1192): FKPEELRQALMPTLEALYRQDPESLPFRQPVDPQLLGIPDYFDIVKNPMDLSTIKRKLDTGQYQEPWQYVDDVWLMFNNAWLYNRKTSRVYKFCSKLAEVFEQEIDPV

Molecule	IC50
COC(=O)N1Cc2c(ccc3c2nc(C2CCCCC2)n3Cc2ccccc2)C[C@H]1C [Compound 282]	0.01 to 0.1 µM
(1S,3S)-3-[3-[(2S)-2-(3,4-difluorophenyl)propyl]-8-(methoxycarbonyl)-3H,6H,7H,8H,9H-imidazo[4,5-h]isoquinolin-2-yl]cyclohexane-1-carboxylic acid [Compound 29]	0.001 to 0.01 µM
COC(=O)N1CCc2ccc3c(nc(C4CCCCC4)n3CC[C@H]3CCCC[C@@H]3C(=O)O)c2C1 [Compound 252]	0.01 to 0.1 µM
COC(=O)N1CCc2ccc3c(nc(N4CCC(C(=O)O)CC4)n3[C@@H](C)C(F)(F)c3ccccc3)c2C1 (single isomer, unassigned) [Compound 24]	0.001 to 0.01 µM
COC(=O)N1CCc2ccc3c(nc(N4CCC(C(=O)O)CC4)n3[C@H](C)Cc3cc(F)cc(F)c3)c2C1 [Compound 308]	0.1 to 1 µM
COC(=O)N1CCc2ccc3c(nc([C@H]4CC[C@H](C(=O)O)CC4)n3[C@H](C)C[C@H]3CC[C@H](OC)CC3)c2C1 [Compound 287]	0.01 to 0.1 µM
COC(=O)N1CCc2ccc3c(nc(N4CCC(C(=O)O)CC4)n3[C@@H](C)Cn3cc(C(F)(F)F)cn3)c2C1 [Compound 46]	0.001 to 0.01 µM
COC(=O)N1CCc2ccc3c(nc(C4CCCCC4)n3C[C@](C)(C(=O)O)c3ccccc3)c2C1 [Compound 135]	0.001 to 0.01 µM
COC(=O)N1CCc2ccc3c(nc(C4CCCCC4)n3C[C@@H](CC(=O)O)c3ccc(F)c(F)c3)c2C1 [Compound 4, (3S)-4-[2-cyclohexyl-8-(methoxycarbonyl)-3H,6H,7H,8H,9H-imidazo[4,5-h]isoquinolin-3-yl]-3-(3,4-difluorophenyl)butanoic acid]	0.001 to 0.01 µM
COC(=O)N1CCc2ccc3c(nc([C@H]4CC[C@H](C(=O)O)CC4)n3[C@H](C)Cc3cccnc3)c2C1 [Compound 111]	0.001 to 0.01 µM
COC(=O)N1CCc2ccc3c(nc(C4CCN(C(C)=O)CC4)n3[C@H](C)Cc3cccnc3)c2C1 [Compound 346]	0.1 to 1 µM
COC(=O)N1CCc2ccc3c(nc(N4CCN(S(C)(=O)=O)CC4)n3[C@@H](C)Cn3cc(Cl)cn3)c2C1 [Compound 66]	0.001 to 0.01 µM
COC(=O)N1CCc2ccc3c(nc(C4CCCCC4)n3[C@H](C)C[C@H]3CC[C@H](C(=O)O)CC3)c2C1 [Compound 237]	0.01 to 0.1 µM
COC(=O)N1CCc2ccc3c(nc(C4CCCCC4)n3[C@@H](C)C[C@H]3CC[C@H](C(=O)O)CC3)c2C1 [Compound 48]	0.001 to 0.01 µM
COC(=O)N1CCc2ccc3c(nc(N4CCN(C(C)=O)CC4)n3[C@@H](C)Cc3ccccc3)c2C1 [Compound 324]	0.1 to 1 µM
COC(=O)N1CCc2ccc3c(nc(C4CCCCC4)n3CCc3ccc(OC)c(C(=O)O)c3)c2C1 [Compound 242]	0.01 to 0.1 µM
COC(=O)N1CCc2ccc3c(nc(-c4ccncc4)n3[C@@H](C)Cc3ccccc3)c2C1 [Compound 109]	0.001 to 0.01 µM
COC(=O)N1CCc2ccc3c(nc([C@H]4CC[C@@](C)(C(=O)O)CC4)n3[C@@H](CO)Cc3ccccc3)c2C1 [Compound 341]	0.1 to 1 µM
COC(=O)N1CCc2ccc3c(nc([C@H]4CC[C@H](C(=O)O)CC4)n3[C@@H](CO)Cc3ccccc3)c2C1 [Compound 151]	0.001 to 0.01 µM
COC(=O)N1CCc2ccc3c(nc(-c4ccc(C(=O)O)cc4)n3[C@H](C)Cc3ccccc3)c2C1 [Compound 279]	0.01 to 0.1 µM
COC(=O)N1CCc2ccc3c(nc([C@H]4CCCOC4)n3C[C@@H](C(=O)O)c3ccccc3)c2C1 [Compound 61]	0.001 to 0.01 µM

Molecule	IC50
COC(=O)N1CCc2ccc3c(nc(C4CCCCC4)n3C[C@@H](CC(=O)O)c3ccccc3)c2C1 [Compound 8]	0.001 to 0.01 µM
COC(=O)N1CCc2ccc3c(nc([C@H]4CC[C@H](C(=O)O)CC4)n3[C@H](C)Cc3cc(F)cc(F)c3)c2C1 [Compound 253]	0.01 to 0.1 µM
COC(=O)N1CCc2ccc3c(nc(C4CCCC4)n3C[C@H](C(=O)O)c3ccccc3)c2C1 [Compound 55]	0.001 to 0.01 µM
COC(=O)N1CCc2ccc3c(nc([C@@H]4CCC[C@H](C(=O)O)C4)n3[C@@H](C)Cc3ccccc3)c2C1 (single isomer, unassigned) [Compound 203]	0.01 to 0.1 µM
COC(=O)N1CCc2ccc3c(nc([C@H]4CC[C@@H](C(=O)O)C4)n3[C@@H](C)Cc3ccccc3C)c2C1 [Compound 218]	0.01 to 0.1 µM
COC(=O)N1CCc2ccc3c(nc(N4CCC(C(=O)O)CC4)n3[C@H](C)Cc3ccc(F)c(F)c3)c2C1 (single isomer, unassigned) [Compound 307]	0.1 to 1 µM
COC(=O)N1CCc2ccc3c(nc(-c4ccccn4)n3[C@@H](C)Cc3ccccc3)c2C1 [Compound 159]	0.001 to 0.01 µM
COC(=O)N1CCc2ccc3c(nc(C4CCCCC4)n3C[C@@H](C(=O)O)c3cc(F)ccc3OC)c2C1 [Compound 240]	0.01 to 0.1 µM
COC(=O)N1CCc2ccc3c(nc([C@H]4CC[C@H](C(=O)O)CC4)n3[C@@H](C)Cc3ccc(F)c(OC)c3)c2C1 [Compound 43]	0.001 to 0.01 µM
COC(=O)N1CCc2ccc3c(nc(C4CCC4)n3C[C@@H](C(=O)O)c3ccccc3)c2C1 [Compound 157]	0.001 to 0.01 µM
COC(=O)N1CCc2ccc3c(nc(C4CCCCC4)n3C[C@H](CC(=O)O)c3ccccc3C)c2C1 [Compound 115]	0.001 to 0.01 µM
COC[C@H](Cc1ccccc1)n1c2ccc3c(c2nc1[C@H]1CC[C@H](C(=O)O)CC1)CN(C(=O)OC)CC3 [Compound 299]	0.1 to 1 µM
COC(=O)N1CCc2cc(CC(=O)O)c3c(nc(C4CCCCC4)n3CCc3ccccc3)c2C1 [Compound 158]	0.001 to 0.01 µM
COC(=O)N1CCc2ccc3c(nc(C4CCCCC4)n3[C@@H](C)C[C@H]3CCCC[C@H]3C(=O)O)c2C1 [Compound 204]	0.01 to 0.1 µM
COC(=O)N1CCc2ccc3c(nc(C4CCCCC4)n3C[C@@H](C(=O)NS(C)(=O)=O)c3ccccc3)c2C1 (single isomer, unassigned) [Compound 138]	0.001 to 0.01 µM
COC(=O)N1CCc2ccc3c(nc([C@H]4CC[C@H](C(=O)NS(C)(=O)=O)CC4)n3[C@@H](C)Cc3ccccc3)c2C1 (single isomer, unassigned) [Compound 15]	0.001 to 0.01 µM
COC(=O)N1CCc2ccc3c(nc([C@H]4CC[C@H](C(=O)O)CC4)n3C3(Cc4ccccc4)COC3)c2C1 [Compound 271]	0.01 to 0.1 µM
COC(=O)N1CCc2ccc3c(nc(C4CCN(C(=O)O)CC4)n3[C@H](C)Cc3ccccc3)c2C1 [Compound 134]	0.001 to 0.01 µM
COC(=O)N1CCc2ccc3c(nc(C4CCCCC4)n3CC[C@@H]3CCCC[C@@H]3C(=O)O)c2C1 [Compound 219]	0.01 to 0.1 µM
COC(=O)N1CCc2ccc3c(nc([C@H]4CC[C@H](C(=O)O)CC4)n3[C@@H](C)Cc3ccccc3)c2C1 [Compound 192]	0.01 to 0.1 µM
COC(=O)N1CCc2ccc3c(nc(C4CCN(C(C)=O)CC4)n3[C@@H](C)Cc3ccccc3)c2C1 [Compound 323]	0.1 to 1 µM

Molecule	IC50
COC(=O)N1CCc2ccc3c(nc(C4CCCCC4)n3[C@H](C)C[C@@H]3CCCC[C@@H]3C(=O)O)c2C1 [Compound 91]	0.001 to 0.01 µM
COC(=O)N1CCc2ccc3c(nc([C@H]4CC[C@H](C(=O)O)CC4)n3[C@H](C)C(F)(F)c3ccccc3)c2C1 [Compound 125]	0.001 to 0.01 µM
COC(=O)N1CCc2ccc3c(nc(-c4ccc(C(C)(C)C(=O)O)cc4)n3[C@H](C)Cn3cc(Cl)cn3)c2C1 [Compound 327]	0.1 to 1 µM
COC(=O)N1CCc2ccc3c(nc([C@H]4CC[C@H](C(=O)O)CC4)n3[C@H](C)Cc3ccccc3Cl)c2C1 [Compound 295]	0.1 to 1 µM
COC(=O)N1CCc2ccc3c(nc(C4CCCCC4)n3[C@@H](C)C[C@@H]3CCCC[C@@H]3C(=O)O)c2C1 [Compound 120]	0.001 to 0.01 µM
COC(=O)N1CCc2ccc3c(nc(C4CCCCC4)n3CCc3ccccc3)c2C1 [Compound 170]	0.001 to 0.01 µM
(1R,3R)-3-[3-[(2R)-2-(3,4-difluorophenyl)propyl]-8-(methoxycarbonyl)-3H,6H,7H,8H,9H-imidazo[4,5-h]isoquinolin-2-yl]cyclohexane-1-carboxylic acid [Compound 28]	0.001 to 0.01 µM
COC(=O)N1CCc2ccc3c(nc([C@H]4CC[C@](C)(C(=O)O)CC4)n3[C@H](C)Cn3cc(Cl)cn3)c2C1 [Compound 309]	0.1 to 1 µM
COC(=O)N1CCc2ccc3c(nc(C4CCCCC4)n3C[C@H](CC(=O)O)c3cc(F)cc(OC)c3)c2C1 [Compound 36]	0.001 to 0.01 µM
COC(=O)N1CCc2ccc3c(nc(C4CCCCC4)n3CC[C@@H]3CCCC[C@H]3C(=O)O)c2C1 [Compound 235]	0.01 to 0.1 µM
COC(=O)N1CCc2ccc3c(nc(N4CCN(C(=O)CO)CC4)n3[C@@H](C)Cc3ccccc3)c2C1 [Compound 164]	0.001 to 0.01 µM
COC(=O)N1CCc2ccc3c(nc(C4CCCCC4)n3CCc3ccc(F)c(C(=O)O)c3)c2C1 [Compound 160]	0.001 to 0.01 µM
CNC(=O)N1CCc2ccc3c(nc([C@H]4CC[C@H](C(=O)O)CC4)n3[C@@H](C)Cc3ccccc3)c2C1 [Compound 228]	0.01 to 0.1 µM
COC(=O)N1CCc2ccc3c(nc(C4CS(=O)(=O)C4)n3CCc3ccccc3)c2C1 [Compound 342]	0.1 to 1 µM
COC(=O)N1CCc2ccc3c(nc(N4CCCCC4)n3[C@H](C)Cc3cccc(C(=O)O)c3)c2C1 (single isomer, unassigned) [Compound 33]	0.001 to 0.01 µM
COC(=O)N1CCc2ccc3c(nc(C4CCCCC4)n3C[C@H](CC(=O)O)c3ccccc3)c2C1 [Compound 167]	0.001 to 0.01 µM
COC(=O)N1CCc2c(C(=O)O)cc3c(nc(N4CCCCC4)n3C[C@@H](C)c3ccccc3)c2C1 [Compound 103]	0.001 to 0.01 µM
COC(=O)N1CCc2ccc3c(nc([C@H]4CCC[C@H](C(=O)O)C4)n3C(C)Cc3ccccc3Cl)c2C1 (stereo in doubt) [Compound 19, (1S,3S)-3-{3-[(2R)-1-(2-chlorophenyl)propan-2-yl]-8-(methoxycarbonyl)-3H,6H,7H,8H,9H-imidazo[4,5-h]isoquinolin-2-yl}cyclohexane-1-carboxylic acid]	0.001 to 0.01 µM
COC(=O)N1CCc2ccc3c(nc(-c4ccc(C(=O)O)cc4)n3[C@@H](C)Cn3cc(Cl)cn3)c2C1 [Compound 132]	0.001 to 0.01 µM
